Laboratory results reported in patent publication US20140227335A1 (priority 2012, published 2014).
pIC50: −log10 of the molar value.

What was measured:
[1] = Cytotoxicity on human cell lines (Cell Titer-Glo); assay type: cell-based
HCVcc = assay type: cell-based, HCV
HIV-1 92RW021 = experiment: HIV infectivity assay in TZM-bl cells; assay type: cell-based; details: 92RW021 (clade A, R5); for pIC50: Human immunodeficiency virus 1, TZM-bl
HIV-1 93IN017 = experiment: HIV infectivity assay in TZM-bl cells; assay type: cell-based; details: 93IN017 (clade C, X4); for pIC50: Human immunodeficiency virus 1, TZM-bl
HIV-1 92HT599 = experiment: Anti-HIV efficacy in fresh human PBMC (reverse transcriptase activity); assay type: cell-based; details: Human immunodeficiency virus 1, PBMC, 168 h; 92HT599 (clade B, X4); PBMCs, MOI = 0.1, 7 days
HIV-1 Jv1083 = experiment: HIV infectivity assay in TZM-bl cells; assay type: cell-based; details: Jv1083 (clade G, R5); for pIC50: Human immunodeficiency virus 1, TZM-bl
[2] = tested on: pseudotyped NL4.3 Env-eGFP/gp160 Env virus; experiment: HIV-1 cell-to-cell transfer assay (DC to Jurkat T cells); assay type: cell-based; details: 10 μM PD added to DC 2 h after virus, washed after 2 h
HIV-1 93BR020 = experiment: HIV infectivity assay in TZM-bl cells; assay type: cell-based; details: 93BR020 (clade F, X4); for pIC50: Human immunodeficiency virus 1, TZM-bl
HIV-1 92UG005 = experiment: HIV infectivity assay in TZM-bl cells; assay type: cell-based; details: 92UG005 (clade D, R5); for pIC50: Human immunodeficiency virus 1, TZM-bl

N=C1Sc2ccccc2C2=NCCCN12 [PD, PD 404,182]
CC50 ([1]; HepG2, HCT-8, Huh-7, Huh-7.5, TZM, PC3 and 293T cells, seven different human cell lines): > 300000 nM
CC50 ([1]; human, TZM-bl (HeLa) cervical cancer cells): > 300000 nM
inhibition of HCVcc infectivity (HCVcc): > 10 fold
IC90 (HIV-1 92RW021; PD in DMEM + 10% FBS): 3800 ± 300 nM
IC90 (HIV-1 92RW021; PD in cervical fluids): 4400 ± 200 nM
IC90 (HIV-1 92RW021; PD in seminal plasma): 4620 ± 320 nM
pIC50 (HIV-1 92RW021; PD in DMEM + 10% FBS): 6.37
pIC50 (HIV-1 92RW021; PD in cervical fluids): 6.17
pIC50 (HIV-1 92RW021; PD in seminal plasma): 6.24
IC50 (DMEM; IC90 per footnote) (HIV-1 93IN017; PD in DMEM + 10% FBS): 1900 ± 200 nM
IC50 (Cervical Fluid; IC90 per footnote) (HIV-1 93IN017; PD in cervical fluids): 2400 ± 200 nM
IC50 (Seminal Plasma; IC90 per footnote) (HIV-1 93IN017; PD in seminal plasma): 2090 ± 190 nM
pIC50 (HIV-1 93IN017; PD in DMEM + 10% FBS): 6.40
pIC50 (HIV-1 93IN017; PD in cervical fluids): 6.15
pIC50 (HIV-1 93IN017; PD in seminal plasma): 6.35
pIC50 (HIV-1 92HT599): 6.26
IC90 (HIV-1 92HT599): 1920 nM
pIC50 (HIV-1 Jv1083; PD in DMEM + 10% FBS): 5.96
pIC50 (HIV-1 Jv1083; PD in cervical fluids): 5.82
pIC50 (HIV-1 Jv1083; PD in seminal plasma): 5.90
IC90 (HIV-1 Jv1083; PD in DMEM + 10% FBS): 3900 ± 300 nM
IC90 (HIV-1 Jv1083; PD in cervical fluids): 4700 ± 100 nM
IC90 (HIV-1 Jv1083; PD in seminal plasma): 4220 ± 390 nM
DC-mediated transmission of HIV-1 to T cells [2]: prevents subsequent T cell infection with the pseudotyped virus
IC90 (HIV-1 93BR020; PD in DMEM + 10% FBS): 6900 ± 400 nM
IC90 (HIV-1 93BR020; PD in cervical fluids): 7500 ± 400 nM
IC90 (HIV-1 93BR020; PD in seminal plasma): 7190 ± 620 nM
pIC50 (HIV-1 93BR020; PD in DMEM + 10% FBS): 5.85
pIC50 (HIV-1 93BR020; PD in cervical fluids): 5.72
pIC50 (HIV-1 93BR020; PD in seminal plasma): 5.79
IC50 (DMEM; IC90 per footnote) (HIV-1 92UG005; PD in DMEM + 10% FBS): 5300 ± 400 nM
IC50 (Cervical Fluid; IC90 per footnote) (HIV-1 92UG005; PD in cervical fluids): 5700 ± 300 nM
IC50 (Seminal Plasma; IC90 per footnote) (HIV-1 92UG005; PD in seminal plasma): 5570 ± 440 nM
pIC50 (HIV-1 92UG005; PD in DMEM + 10% FBS): 5.90
pIC50 (HIV-1 92UG005; PD in cervical fluids): 5.86
pIC50 (HIV-1 92UG005; PD in seminal plasma): 5.88
